Like-named read-outs stand apart in the source and are kept apart here.
Assays:
MOLM-13 cells (FLT3 ITD) = experiment: in vitro standard cytotoxicity (MTS, 72 h), MEN and Gilt single agent or combination, Combination Index; type: cell-based, human; settings: MTS (Table 2); for IC50: Homo sapiens, read-out: IC50 dose level (single agent cytotoxicity)
Description: (§1) In an in vitro standard cytotoxicity experiment, two AML cell lines (MV4-11 [FLT3 ITD] and MOLM-13 [FLT3 ITD]) were treated for 72 hours with MEN and Gilt (a Type I inhibitor) either as a single agent or in combination.
(§2) Human acute myeloid leukemia cell lines MV4-11 and MOLM-13 were obtained from DSMZ, Braunschweig, Germany (ACC102 and ACC554). […] All cells were incubated at 37° C., 5% CO2, 80% relative humidity.

MV4-11 cells (FLT3 ITD) = experiment: as above; type: cell-based, human; settings: for IC50: Homo sapiens, read-out: IC50 dose level (single agent cytotoxicity)
Description: as §1, §2

[1] = tested on: KG-1 cells (FLT wildtype); experiment: as above; type: cell-based, human; settings: for IC50: Homo sapiens
Text: Human acute myeloid leukemia cell line KG-1 was obtained from DSMZ, Braunschweig, Germany (ACC14).

[2] = tested on: MV4-11 (FLT3 ITD) cell line xenograft; experiment: in vivo AML xenograft study, tumor volume inhibition; settings: MV4-11 xenograft, per os from day 19, MEN 25 mg/kg Q1 × 14 d, Gilteritinib 3 mg/kg Q1 × 22 d, combination each as above
Description: For the AML xenograft model, 10×10^6 MV4-11 cells were re-suspended in 0.2 ml of BME type III (Trevigen) at 5.6 mg/ml+DPBS (1:1) and then injected subcutaneously into the right flank of 6-8 weeks old female SCID mice (Charles River, Calco, Italy).
After injection, mice were maintained in micro isolator cages under continuously monitored environmental conditions. Drinking water and specific sterilized diet (VRF1, Charles River) were supplied ad libitum. […] Twice a week, tumor growth and body weight were evaluated and recorded.
(§3) The outcome evaluation was carried out as follows: tumor volumes were measured by caliper, and tumor masses were calculated using the following formula: [length (mm)×width^2 (mm)×d]/2, assuming density, d=1 mg/mm^3 for tumor tissue (Teicher B. Totowa, 1997).
The treatment efficacy was assessed as TVI % in treated versus control mice, using the following formula: TVI %=(1−Volume Average of treated tumor mass/Volume Average of control tumor)*100.
Mice were sacrificed when tumors reached a volume of around 10% of total body weight or when mice's body weight decreased by more than 20% compared to control animals for 7 days or more. Animals were euthanized with carbon dioxide exposure according to the standard procedures (Annex IV of Directive 2010/63/EU; 2010).
GraphPad Prism software (GraphPAD Software Inc., California) was used for statistical analysis. Statistical differences were considered to be significant at p-value<0.05 using the two-tailed Mann-Whitney rank test.

[3] = tested on: MOLM-13 (FLT3 ITD) cell line xenograft; experiment: as above; settings: MOLM-13 xenograft, per os from day 15, MEN 25 mg/kg Q1 × 14 d, Gilteritinib 3 mg/kg Q1 × 14 d, combination each as above
Description: For the AML xenograft model, 10×10^6 MOLM-13 cells were re-suspended in 0.2 ml of BME type III (Trevigen) at 5.6 mg/ml+DPBS (1:1) and then injected subcutaneously into the right flank of 6-8 weeks old female CD-1 mice (Charles River, Calco, Italy).
After injection, mice were maintained in micro isolator cages under continuously monitored environmental conditions. Drinking water and specific sterilized diet (VRF1, Charles River) were supplied ad libitum. Environmental conditions, as well as the procedures for housing and handling the animals, complied with the UKCCCR guideline (Workman P et al., 2010) and the European Convention for the protection of vertebrate animals used for experimental and other scientific purposes (Directive 2010/63/EU; 2010). Twice a week, tumor growth and body weight were evaluated and recorded.
as §3
The treatment efficacy was assessed as TVI % in treated versus control mice, using the following formula: TVI %=(1−Volume Average of treated tumor mass/Volume Average of control tumor)*100. […]

MOLM-13 cells [4] = experiment: in vitro standard cytotoxicity (MTS, 72 h), MEN and Quizartinib single agent or combination, Combination Index; settings: for IC50: Homo sapiens, MOLM-13, 72 h, read-out: IC50 (single agent cytotoxicity)
Description: (§4) The synergistic effect of the combination was measured according to the Combination Index calculation (Chou T C, 2006).
(§5) MOLM-13 cells were grown in RPMI with 20% FBS and incubated at 37° C., 5% CO2, 80% relative humidity.
(§6) 20907) were dissolved in DMSO, divided into aliquots and stored at −80° C. until use. Stock solutions were added at appropriate concentration in culture medium before the addition to cells.
(§7) For cytotoxicity studies cells were seeded at appropriate density (50.000 cells/well) prior to addition of MEN and Quiz at day 0. […] After 72 hours, CellTiter 96 Aqueous One Solution Reagent (MTS) (Promega, Madison. WI, USA) was added to assess the cell viability. Fluorescence was measured 4 h later using Tecan Infinite M200 (Tecan Trading AG, Switzerland), recording absorbance at 490 nm. Quantitative measurement of synergism/antagonism was evaluated with Combination Index (CI) on the Fraction affected (Fa) using CompuSyn (ComboSyn, Inc. Paramus, NJ, USA) (Chou T C, 2006).

MOLM-13 cells [5] = tested on: MOLM-13 cells
Description: as §4, §5, §6, §7

[6] = MOLM-13 cells, 72 h, MTS (Table 5)

SMILES	IC50 (MOLM-13 cells (FLT3 ITD)) [nM]	IC10 dose level (single agent cytotoxicity) (MOLM-13 cells (FLT3 ITD)) [µM]	IC25 dose level (single agent cytotoxicity) (MOLM-13 cells (FLT3 ITD)) [µM]	IC75 dose level (single agent cytotoxicity) (MOLM-13 cells (FLT3 ITD)) [µM]	IC10 dose level (single agent cytotoxicity) (MV4-11 cells (FLT3 ITD)) [µM]	IC25 dose level (single agent cytotoxicity) (MV4-11 cells (FLT3 ITD)) [µM]	IC75 dose level (single agent cytotoxicity) (MV4-11 cells (FLT3 ITD)) [µM]	IC50 (MV4-11 cells (FLT3 ITD)) [nM]	IC10 (single agent cytotoxicity) [1] [µM]	IC25 (single agent cytotoxicity) [1] [µM]	IC75 (single agent cytotoxicity) [1] [µM]	IC50 [1] [nM]	TVI % Day 33 [2] [%]	TVI % Day 40 [2] [%]	TVI % Day 29 [3] [%]	IC50 (MOLM-13 cells [4]) [nM]	other results
CCc1nc(C(N)=O)c(Nc2ccc(N3CCC(N4CCN(C)CC4)CC3)c(OC)c2)nc1NC1CCOCC1 [Gilteritinib]	11	0.0014	0.0040	0.0320	0.0022	0.0042	0.0140	7.9	0.03534	0.1502	2.7120	638	84.1	87.6	60.1		
CC(C)n1c(C2CCNCC2)nc2c([N+](=O)[O-])c(Br)c(Br)cc21 [MEN, 5,6-dibromo-4-nitro-2-(piperidin-4-yl)-1-(propan-2-yl)-1H-1,3-benzodiazole]	510	0.087	0.21	1.23	0.151	0.293	1.103	569	0.05748	0.203	2.530	717	57.2	53.1	38.8	510	IC10 (single agent cytotoxicity) (MOLM-13 cells [4]; [6]): 0.08729 µM; IC25 (single agent cytotoxicity) (MOLM-13 cells [4]; [6]): 0.3222 µM; IC75 (single agent cytotoxicity) (MOLM-13 cells [4]; [6]): 1.234 µM
CC(C)(C)c1cc(NC(=O)Nc2ccc(-c3cn4c(n3)sc3cc(OCCN5CCOCC5)ccc34)cc2)no1 [QUIZ, Quizartinib]																0.946	IC10 (single agent cytotoxicity) (MOLM-13 cells [5]): 374 pM; IC25 (single agent cytotoxicity) (MOLM-13 cells [5]): 595 pM; IC75 (single agent cytotoxicity) (MOLM-13 cells [5]): 1.504 nM

From patent US20260216163A1, “CANCER COMBINATION THERAPY INCLUDING A FLT3-INHIBITOR” (RYVU THERAPEUTICS S.A., priority 2022, published 2026)
